The text below walks through data of ChEMBL document CHEMBL1134811, “Hydrophobicity, a physicochemical factor in the inhibition of the enzyme estrone sulfatase (ES)” (Bioorg Med Chem Lett, 2001).

Data set [1] is described as follows: Partition coefficient (logP). Format: physicochemical. The settings on record: octanol/water.
The target of data set [2] is T1, Steryl-sulfatase (Homo sapiens) (UniProt P08842).
T1 sequence (whole entry): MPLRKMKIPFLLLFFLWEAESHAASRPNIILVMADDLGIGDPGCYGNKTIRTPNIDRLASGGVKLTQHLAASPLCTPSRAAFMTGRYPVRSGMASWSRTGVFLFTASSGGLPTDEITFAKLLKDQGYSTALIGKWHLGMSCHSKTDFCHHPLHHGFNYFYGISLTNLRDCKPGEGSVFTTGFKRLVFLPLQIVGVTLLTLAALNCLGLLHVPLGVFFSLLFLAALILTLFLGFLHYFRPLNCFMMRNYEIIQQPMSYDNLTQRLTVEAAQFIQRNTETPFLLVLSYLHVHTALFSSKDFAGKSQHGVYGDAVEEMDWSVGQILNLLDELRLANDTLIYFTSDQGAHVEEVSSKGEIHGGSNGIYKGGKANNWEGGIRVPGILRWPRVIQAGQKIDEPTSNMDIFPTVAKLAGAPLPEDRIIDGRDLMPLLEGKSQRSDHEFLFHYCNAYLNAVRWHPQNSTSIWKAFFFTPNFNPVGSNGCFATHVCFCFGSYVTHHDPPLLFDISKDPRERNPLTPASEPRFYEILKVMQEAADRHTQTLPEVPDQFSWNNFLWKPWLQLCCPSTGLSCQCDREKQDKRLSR
Description: Inhibitory activity against estrone sulfatase expressed as potency

The target of data set [3] is T1, Steryl-sulfatase (Homo sapiens). The experiment in a line: Inhibitory activity against estrone sulfatase relative to 4-Methylcoumarin-7-O-sulfamate derivative (COUMATE).
Data set [4] shares this target. The experiment in a line: Inhibitory activity against estrone sulfatase relative to Estrone-3-sulfamate (EMATE).

The logP is the decadic logarithm of the partition coefficient of the neutral form, usually between octanol and water. Read a low logP as lower lipophilicity. In data set [1], `C[C@]12CC[C@@H]3c4ccc(OS(N)(=O)=O)cc4CCC3[C@@H]1CCC2=O` (single isomer, unassigned) [EMATE] registered a logP of 3.9. For the same compound, the Potency in data set [2] came to 1; in data set [3], 24.

The compound `CCCCCCCC(=O)c1ccc(OS(N)(=O)=O)cc1` displayed a logP in data set [1] of 3.7. Further, the Potency in data set [4] turned out to be 0.0893; in data set [3], 2.14.

Compound `NS(=O)(=O)Oc1ccc(C(=O)c2ccccc2)cc1` displayed a logP in data set [1] of 2.9. The Potency was determined as 0.0079 in data set [4] and 0.191 in data set [3].

In turn, `CCCCCCCCCC(=O)c1ccc(OS(N)(=O)=O)cc1` returned a logP in data set [1] of 4.4. Also, the values for the Potency in data set [4] and in data set [3] were 0.0385 and 0.923, respectively.

Turning to `CCCCCCC(=O)c1ccc(OS(N)(=O)=O)cc1`, the lipophilicity (logP) in data set [1] came out at 3.3. Also, the Potency in data set [4] amounted to 0.1; in data set [3], 2.4.

The compound `CC(=O)c1ccc(OS(N)(=O)=O)cc1` gave a logP in data set [1] of 1.1. The Potency was 0.0016 in data set [4] and 0.0397 in data set [3].

In data set [1], `NS(=O)(=O)Oc1ccc(C(=O)/C=C/c2ccccc2)cc1` registered a logP of 3.4. The results for the Potency in data set [4] and in data set [3] were 0.0019 and 0.0456, respectively.

Regarding `CCCCCCCCC(=O)c1ccc(OS(N)(=O)=O)cc1`, the logP in data set [1] was 4.1. The Potency in data set [4] stood at 0.147; in data set [3], 3.53.

`CCCCC(=O)c1ccc(OS(N)(=O)=O)cc1` registered a log partition coefficient (logP) in data set [1] of 2.5. For the same compound, the Potency in data set [4] was determined as 0.0239; in data set [3], 0.574.

`NS(=O)(=O)Oc1ccc(C(=O)Cc2ccccc2)cc1` gave a logP in data set [1] of 2.9. For the same compound, the Potency came out at 0.0152 in data set [4] and 0.364 in data set [3].

In data set [1], `NS(=O)(=O)Oc1ccc(C=O)cc1` came in with a logP of 1.4. Further, the Potency in data set [4] was determined as 0.0019; in data set [3] it was 0.0472.

`CCCC(=O)c1ccc(OS(N)(=O)=O)cc1`: the logP in data set [1] came to 2.1. The values for the Potency in data set [4] and in data set [3] were 0.0126 and 0.301, respectively.

With `Cc1cc(=O)oc2cc(OS(N)(=O)=O)ccc12`, in data set [1], the logP turned out to be 1.7. The Potency in data set [2] turned out to be 1; in data set [4], 0.0417.
